The numbers were not newly measured in patent US20160378910A1, “MOLECULAR ACTIVE CENTER IDENTIFICATION USING TUNNELING BARRIERS AND/OR ASSOCIATED MEASUREMENTS FOR SUB-MOLECULAR QSAR” (Florida Institute of Technology, Inc., priority 2015, published 2016), which cites them from elsewhere.

In this series the test system is W-2 strain of P. falciparum. The conditions noted are these: W-2 strain of malaria (P. falciparum); rank among the twelve tryptanthrin analogs in the α3* lobe QSAR plot (FIG. 13).

Turning to `O=C1c2cc(I)ccc2-n2c1nc1c(O)nc(O)nc1c2=O` [1,3-diaza-2,4-hydroxy-8-iodotryptanthrin], the IC50 entry is given as “highest”.
